Columns and labels:
[1] = Displacement of [3H]2-BFI from I2IR in human brain frontal cortex assessed as binding affinity at high affinity site incubated for 45 mins by liquid scintillation spectrometry; format: tissue-based
[2] = Displacement of [3H]2-BFI from I2IR in human brain frontal cortex assessed as binding affinity at low affinity site incubated for 45 mins by liquid scintillation spectrometry; format: tissue-based
Homo sapiens [3] = species on record: Homo sapiens; test: Displacement of [3H]2-BFI from I2IR in human brain frontal cortex assessed as binding affinity at high affinity site incubated for 45 mins by liquid scintillation spectrometry relative to control; format: tissue-based; set-up: concentration or dose not given beside the values
Homo sapiens [4] = species on record: Homo sapiens; test: Selectivity ratio of Ki for alpha2-AR high binding site in human brain frontal cortex to Ki for I2IR high binding site in human brain frontal cortex
[5] = target: T1, Alpha-2A adrenergic receptor (Homo sapiens, UniProt P08913); test: biochemical
T1 sequence (P08913 whole entry): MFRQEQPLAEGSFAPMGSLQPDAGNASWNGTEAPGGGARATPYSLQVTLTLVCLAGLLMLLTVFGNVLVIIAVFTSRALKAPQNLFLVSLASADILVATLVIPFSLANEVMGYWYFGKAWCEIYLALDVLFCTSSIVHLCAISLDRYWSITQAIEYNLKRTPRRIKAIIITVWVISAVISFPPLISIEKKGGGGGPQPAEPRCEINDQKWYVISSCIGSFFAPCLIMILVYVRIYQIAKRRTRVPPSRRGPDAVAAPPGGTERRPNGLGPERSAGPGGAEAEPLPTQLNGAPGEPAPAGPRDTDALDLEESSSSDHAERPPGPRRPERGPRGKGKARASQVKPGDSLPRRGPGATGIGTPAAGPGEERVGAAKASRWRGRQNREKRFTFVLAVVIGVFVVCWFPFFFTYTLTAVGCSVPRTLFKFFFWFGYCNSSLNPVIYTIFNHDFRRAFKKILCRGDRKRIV
Description: Displacement of [3H]RX821002 from alpha2-AR in human brain frontal cortex incubated for 30 mins by liquid scintillation spectrometry

[6] = Displacement of [3H]2-BFI from I2IR in Wistar rat brain cortex incubated for 90 mins by radioligand binding assay
[7] = Displacement of [3H]2-BFI from I2IR in Sprague-Dawley rat brain cortex assessed as binding affinity at high binding site incubated for 45 mins by liquid scintillation spectrometry
[8] = Displacement of [3H]2-BFI from I2IR in Sprague-Dawley rat brain cortex assessed as binding affinity at low binding site incubated for 45 mins by liquid scintillation spectrometry
Rattus norvegicus = species on record: Rattus norvegicus; test: Displacement of [3H]2-BFI from I2IR in Sprague-Dawley rat brain cortex assessed as binding affinity at high binding site incubated for 45 mins by liquid scintillation spectrometry relative to control
[9] = Displacement of [3H]2-BFI from I2IR in human brain frontal cortex incubated for 45 mins by liquid scintillation spectrometry; format: tissue-based
Homo sapiens [10] = species on record: Homo sapiens; test: Selectivity index, […] for alpha2-AR human brain frontal cortex […] in human brain frontal cortex
Nischarin = Nischarin (Homo sapiens, UniProt Q9Y2I1); test: Displacement of [3H]clonidine from I1IR in human brain frontal cortex in presence of adrenaline incubated for 45 mins by liquid scintillation spectrometry; format: tissue-based
[11] = Displacement of [3H]2-BFI from I2IR in Sprague-Dawley rat brain cortex incubated for 45 mins by liquid scintillation spectrometry
[12] = Displacement of [3H]2-BFI from I2IR in Swiss mouse brain cortex incubated for 45 mins by liquid scintillation spectrometry

Chain of Nischarin (Q9Y2I1 whole entry): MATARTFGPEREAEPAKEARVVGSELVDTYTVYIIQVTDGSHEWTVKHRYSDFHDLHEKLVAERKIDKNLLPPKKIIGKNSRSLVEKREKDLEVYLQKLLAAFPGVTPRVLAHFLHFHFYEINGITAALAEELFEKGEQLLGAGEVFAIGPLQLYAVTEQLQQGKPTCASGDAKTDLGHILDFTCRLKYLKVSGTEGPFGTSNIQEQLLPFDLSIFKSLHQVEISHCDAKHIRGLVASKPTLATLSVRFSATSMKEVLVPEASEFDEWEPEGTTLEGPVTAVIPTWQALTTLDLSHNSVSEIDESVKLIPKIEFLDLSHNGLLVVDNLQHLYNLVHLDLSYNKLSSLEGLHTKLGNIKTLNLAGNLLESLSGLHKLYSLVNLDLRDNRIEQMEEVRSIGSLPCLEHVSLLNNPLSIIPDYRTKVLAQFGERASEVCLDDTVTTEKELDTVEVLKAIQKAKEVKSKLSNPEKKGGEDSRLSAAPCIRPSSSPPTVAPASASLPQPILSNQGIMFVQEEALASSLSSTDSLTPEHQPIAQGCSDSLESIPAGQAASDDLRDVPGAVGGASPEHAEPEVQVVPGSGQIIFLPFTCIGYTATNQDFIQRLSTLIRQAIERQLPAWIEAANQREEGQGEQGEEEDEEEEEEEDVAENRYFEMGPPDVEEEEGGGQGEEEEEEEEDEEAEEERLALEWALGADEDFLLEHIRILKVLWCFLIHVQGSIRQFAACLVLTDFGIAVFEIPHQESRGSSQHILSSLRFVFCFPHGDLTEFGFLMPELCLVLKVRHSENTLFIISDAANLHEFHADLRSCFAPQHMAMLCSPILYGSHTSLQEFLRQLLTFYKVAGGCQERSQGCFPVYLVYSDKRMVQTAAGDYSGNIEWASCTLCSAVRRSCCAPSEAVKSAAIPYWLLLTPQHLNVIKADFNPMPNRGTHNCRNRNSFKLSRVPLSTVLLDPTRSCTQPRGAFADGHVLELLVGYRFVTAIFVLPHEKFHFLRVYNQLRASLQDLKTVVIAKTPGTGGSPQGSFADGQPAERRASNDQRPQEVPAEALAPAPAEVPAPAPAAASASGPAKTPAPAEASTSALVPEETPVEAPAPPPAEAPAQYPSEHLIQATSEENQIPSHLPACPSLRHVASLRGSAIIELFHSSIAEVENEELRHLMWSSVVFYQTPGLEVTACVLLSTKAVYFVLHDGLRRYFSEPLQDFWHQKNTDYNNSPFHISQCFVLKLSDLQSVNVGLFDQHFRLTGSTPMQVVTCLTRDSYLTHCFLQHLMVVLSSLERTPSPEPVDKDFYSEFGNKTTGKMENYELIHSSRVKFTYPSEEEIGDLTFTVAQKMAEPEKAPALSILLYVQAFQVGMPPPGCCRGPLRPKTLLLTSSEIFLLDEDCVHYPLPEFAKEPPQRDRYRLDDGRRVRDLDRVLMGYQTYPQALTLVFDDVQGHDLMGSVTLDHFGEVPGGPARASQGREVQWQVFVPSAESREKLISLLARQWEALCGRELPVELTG

Row | SMILES | Ki [5] [µM] | pKi [9] | IC50 (Nischarin) [µM] | other results
1 | c1ccc2oc(-c3ncc[nH]3)cc2c1 | 6.76 |  |  | pKi [1]: 9.03; pKi [2]: 5.25; Activity (Homo sapiens [3]): 49%; Ratio Ki (Homo sapiens [4]): 7240
2 | c1ccc(-c2ncc3cc(-n4ccnc4)ccc3n2)cc1 | 2240 |  |  | IC50 [6]: 0.596 µM; Ki [6]: 0.019 µM; pKi [1]: 7.72; pKi [2]: 5.45; Activity (Homo sapiens [3]): 29%; Ratio Ki (Homo sapiens [4]): 117000
3 | c1ccc2oc(C3=NCCN3)cc2c1 | 0.229 |  |  | Ki [1]: 0.00013 µM; pKi [1]: 9.87; pKi [2]: 7.94; Activity (Homo sapiens [3]): 21%; Ratio Ki (Homo sapiens [4]): 1700
4 | Cn1c(C2=NCCN2)cc2ccccc21 |  |  |  | pKi [1]: 6.89; pKi [2]: 3.82; Activity (Homo sapiens [3]): 51%; Ki [7]: 0.0014 µM; Ki [8]: 0.239 µM; inhibition (Rattus norvegicus): 58%
5 | CCOP(=O)(OCC)C1(c2ccccc2)N=CC2C(=O)N(CCc3ccccc3)C(=O)C21 (racemic) | 170 | 6.35 | 0.0105 | Ratio pKi (Homo sapiens [10]): 380
6 | CCOP(=O)(OCC)C1(c2ccccc2)N=CC2C(=O)N(Cc3ccccc3)C(=O)C21 (racemic) |  | 5.26 | 1.35 | 
7 | CCOP(=O)(OCC)C1(c2ccccc2)N=CC2C(=O)N(c3cccc([N+](=O)[O-])c3)C(=O)C21 (racemic) |  | 6.81 | 5.5 | 
8 | CCOP(=O)(OCC)C1N=CC2C(=O)N(c3ccc(F)c(Cl)c3)C(=O)C21 (racemic) | 0.00324 | < 3 | > 1000 | 
9 | CCOP(=O)(OCC)C1(c2ccccc2)N=CC2C(=O)N(c3cccc(Cl)c3)C(=O)C21 (racemic) |  | < 3 |  | 
10 | CCOP(=O)(OCC)C1(c2ccccc2)N=CC2C(=O)N(CC34CC5CC(CC(C5)C3)C4)C(=O)C21 (racemic) | 49 | 7.01 |  | Ratio pKi (Homo sapiens [10]): 501
11 | CCOP(=O)(OCC)C1(c2ccc(F)cc2)N=CC2C(=O)N(c3ccccc3)C(=O)C21 (racemic) | 0.17 | < 3 |  | 
12 | CCOP(=O)(OCC)C1(c2ccccc2)N=CC2C(=O)N(c3cc(Cl)cc(Cl)c3)C(=O)C21 (racemic) | 0.603 | 5.81 |  | 
13 | CCOP(=O)(OCC)C1(c2ccccc2)N=CC2C(=O)N(C)C(=O)C21 (racemic) | 1.17 | 7.97 | 0.646 | Ratio pKi (Homo sapiens [10]): 110
14 | CCOP(=O)(OCC)C1(c2ccccc2)N=CC2C(=O)N(c3c(Cl)cc(Cl)cc3Cl)C(=O)C21 (racemic) | 6.92 | < 3 |  | 
15 | CCOP(=O)(OCC)C1(c2ccccc2)N=CC2C(=O)N(c3ccc(C)cc3)C(=O)C21 (racemic) |  | 5.44 |  | 
16 | CCOP(=O)(OCC)C1(c2ccc(F)cc2)N=CC2C(=O)N(c3ccc(F)c(Cl)c3)C(=O)C21 (racemic) | 417 | 7.55 |  | Ratio pKi (Homo sapiens [10]): 14800
17 | CCOP(=O)(OCC)C1N=CC2C(=O)N(C)C(=O)C21 (racemic) | 0.00447 | 6.79 | 7.41 | 
18 | CCOP(=O)(OCC)C1(Cc2ccccc2)N=CC2C(=O)N(c3ccccc3)C(=O)C21 (racemic) | 115 | 6.59 | 7.59 | Ratio pKi (Homo sapiens [10]): 447
19 | CCOP(=O)(OCC)C1(c2ccccc2)N=CC2C(=O)N(c3ccc(F)cc3)C(=O)C21 (racemic) | 4.57 | < 3 |  | 
20 | CCOP(=O)(OCC)C1(c2ccccc2)N=CC2C(=O)N(c3ccc(C(F)(F)F)cc3)C(=O)C21 (racemic) | 18.6 | < 3 |  | 
21 | CCOP(=O)(OCC)C1(c2ccccc2)N=CC2C(=O)N(c3ccccc3)C(=O)C21 (racemic) |  | 10.28 | 0.182 | 
22 | CCOP(=O)(OCC)C1N=CC2C(=O)N(C3CCCCC3)C(=O)C21 (racemic) | 0.000324 | 5.74 | 7.24 | Ratio pKi (Homo sapiens [10]): 5
23 | CCOP(=O)(OCC)C1(c2ccccc2)N=CC2C(=O)N(c3ccc(Cl)c(Cl)c3)C(=O)C21 (racemic) |  | < 3 |  | 
24 | CCOP(=O)(OCC)C1(c2ccccc2)N=CC2C(=O)N(c3cccnc3Cl)C(=O)C21 (racemic) | > 1000 | 7.96 |  | Ratio pKi (Homo sapiens [10]): 91200

Row | SMILES | Ki [5] [µM] | pKi [9] | IC50 (Nischarin) [µM] | other results
25 | CCOP(=O)(OCC)C1(c2ccccc2)N=CC2C(=O)N(c3ccccc3Cl)C(=O)C21 (racemic) | 0.708 | 5.09 |  | pKi [1]: 7.53; pKi [2]: 4.74; Activity (Homo sapiens [3]): 25%; Ratio Ki (Homo sapiens [4]): 24
26 | CCOP(=O)(OCC)C1(c2ccccc2)N=CC2C(=O)N(c3cccc4ccccc34)C(=O)C21 (racemic) | > 1000 | 3.11 |  | 
27 | CCOP(=O)(OCC)C1(c2ccccc2)N=CC2C(=O)N(c3ccc(Oc4ccccc4)cc3)C(=O)C21 (racemic) |  | 6.96 |  | 
28 | CCOP(=O)(OCC)C1(c2ccccc2)N=CC2C(=O)N(c3ccc(OC)cc3)C(=O)C21 (racemic) |  | 6.65 | 603 | 
29 | CCOP(=O)(OCC)C1(c2ccccc2)N=CC2C(=O)N(c3cccc(C(F)(F)F)c3)C(=O)C21 (racemic) |  | < 3 |  | 
30 | CCOP(=O)(OCC)C1(c2ccccc2)N=CC2C(=O)N(C3CCCCC3)C(=O)C21 (racemic) |  |  | 0.0288 | 
31 | CCOP(=O)(OCC)C1N=CC2C(=O)N(c3ccc(OC)cc3)C(=O)C21 (racemic) | 5.37e-05 | 5.11 | 0.00813 | 
32 | CCOP(=O)(OCC)C1(c2ccc(OC)cc2)N=CC2C(=O)N(c3ccc(F)c(Cl)c3)C(=O)C21 (racemic) | > 1000 | 7.87 |  | Ratio pKi (Homo sapiens [10]): 74100
33 | CCOP(=O)(OCC)C1(c2ccccc2)N=CC2C(=O)N(c3ccc(Cl)cc3)C(=O)C21 (racemic) |  | < 3 |  | 
34 | CCOP(=O)(OCC)C1N=CC2C(=O)N(c3ccccc3)C(=O)C21 (racemic) | 9.55 | 7.73 | 3.39 | 
35 | CCOP(=O)(OCC)C1(c2ccccc2)N=CC2C(=O)N(C3Cc4ccccc4C3)C(=O)C21 (racemic) | 363 | 3.84 |  | Ratio pKi (Homo sapiens [10]): 2; pKi [1]: 6.87; pKi [2]: 3.2; Activity (Homo sapiens [3]): 22%; Ratio Ki (Homo sapiens [4]): 2690
36 | CCOP(=O)(OCC)C1(c2ccccc2)N=CC2C(=O)N(C(C)(C)C)C(=O)C21 (racemic) | 0.17 | 7.35 |  | Ratio pKi (Homo sapiens [10]): 3
37 | CCCN1C(=O)C2C=NC(c3ccccc3)(P(=O)(OCC)OCC)C2C1=O (racemic) |  | 4.02 |  | 
38 | CCOP(=O)(OCC)C1(Cc2ccc(F)cc2)N=CC2C(=O)N(c3ccccc3)C(=O)C21 (racemic) | 0.0631 | 5.35 |  | 
39 | CCOP(=O)(OCC)C1(c2ccccc2)N=CC2C(=O)N(c3cc([N+](=O)[O-])ccc3C)C(=O)C21 (racemic) |  | < 3 |  | 
40 | CCOP(=O)(OCC)C1(c2ccc(OC)cc2)N=CC2C(=O)N(c3ccccc3)C(=O)C21 (racemic) | 141 | 3.39 |  | 
41 | CCOP(=O)(OCC)C1(c2ccccc2)N=CC2C(=O)N(CCc3ccc(F)cc3)C(=O)C21 (racemic) | 2.24 | < 3 |  | 
42 | CCOP(=O)(OCC)C1(c2ccccc2)N=CC2C(=O)N(CC)C(=O)C21 (racemic) | 1.41 | 8.37 |  | Ratio pKi (Homo sapiens [10]): 331; pKi [1]: 8.95; pKi [2]: 5.86; Activity (Homo sapiens [3]): 62%; Ratio Ki (Homo sapiens [4]): 1260
43 | CCOP(=O)(OCC)C1(c2ccccc2)N=CC2C(=O)N(c3ccc(-c4ccccc4)cc3)C(=O)C21 (racemic) |  | 7.9 | 0.0646 | 
44 | CCOP(=O)(OCC)C1(c2ccccc2)N=CC2C(=O)N(c3ccc(Br)cc3)C(=O)C21 (racemic) |  | < 3 |  | 
45 | c1ccc2c(c1)OCC(C1=NCCN1)O2 (stereo not given) [IDAZOXAN] |  |  |  | pKi [1]: 7.74; pKi [11]: 7.17; pKi [12]: 5.68
46 | COc1nc(C)nc(Cl)c1N=C1NCCN1 [MOXONIDINE] |  |  | 0.00355 | 
47 | C(=C\c1ccccc1)/C1=NCCN1 [TRACIZOLINE] | 46.8 |  |  | Ki [1]: 0.0033 µM; pKi [1]: 8.48; pKi [2]: 6.48; Activity (Homo sapiens [3]): 38%; Ratio Ki (Homo sapiens [4]): 14100

Source: ChEMBL document CHEMBL4354864, “Bicyclic α-Iminophosphonates as High Affinity Imidazoline I2 Receptor Ligands for Alzheimer's Disease” (J Med Chem, 2020)
